Test results published in the supplement of paper PMC10883282.

Assays:
Test in all cases: relative viability vs DMSO control (72 h) (fraction); higher = more viable cells
SK-LMS-1 = test system: SK-LMS-1
Method in brief: (§1)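 Plates held 72 h at 37 °C and 5% CO2 contained sarcoma cell lines seeded in 384-well format to reach 80–90% confluence, plus 2.5 µl of serially diluted compound added after 24 h. Source plate concentrations ran from 10 mM to 0.0002 mM, with 0.1% DMSO as vehicle and a 5 µM positive control. Percent growth from ATPLite readings, averaged over up to triplicate wells, gave relative viability. Values were rescaled with 1 as full and 0 as none.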

SW1353 = test system: SW1353
Method in brief: as §1

SW684 = test system: SW684
Method in brief: as §1

SW872 = test system: SW872
Method in brief: as §1

SW982 = test system: SW982
Method in brief: as §1

SYO-1 = test system: SYO-1
Method in brief: as §1

CN1CCN(c2ccc(C(=O)Nc3n[nH]c4ccc(Cc5cc(F)cc(F)c5)cc34)c(NC3CCOCC3)c2)CC1 [Entrectinib]
relative viability
Settings | SK-LMS-1 | SW684 | SW872 | SW982 | SW1353 | SYO-1
0.00017 µM | 1.13 | 1.14 | 1.11 | 1.03 | 1.04 | 1.03
0.00051 µM | 1.1 | 1.17 | 1.09 | 1.05 | 1.05 | 0.998
0.00152 µM | 1.12 | 1.14 | 1.1 | 1.05 | 1.01 | 1.02
0.00457 µM | 1.13 | 1.2 | 1.07 | 1.07 | 1.01 | 0.953
0.01372 µM | 1.1 | 1.15 | 1.05 | 1.05 | 0.976 | 0.979
0.04115 µM | 1.07 | 1.15 | 1.05 | 1.06 | 0.985 | 0.948
0.1235 µM | 1.07 | 1.16 | 1.03 | 1.06 | 0.9886 | 0.925
0.3704 µM | 1.072 | 1.12 | 0.961 | 0.991 | 0.9517 | 0.851
1.111 µM | 1.03 | 1.1 | 0.887 | 0.865 | 0.953 | 0.765
3.333 µM | 0.856 | 0.971 | 0.66 | 0.548 | 0.782 | 0.529
10 µM | 0.0143 | -0.0109 | 0.218 | 0.0591 | 0.0075 | -0.0142
